This is an account of results in patent US20250332249A1, “CYTOM[…] CELL EPITOPES AND USES THEREOF” (LA JOLLA INSTITUTE FOR IMMUNOLOGY, priority 2021, published 2025).

Where no end group is shown, it is not given here.

This assay relates to PBMCs from HCMV seropositive subjects. Briefly: ex vivo IFN-γ Fluorospot assay. To be noted: 19 HCMV seropositive subjects, individual peptide 10 ug/ml, 20 hr; for No. of subjects responding: IFN-γ; for Magnitude of response: IFN-γ spots (FIG. 1: SFC/10^6 PBMC; no unit in table). The assay is classed as cell-based, human. Summed up: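 PBMC (200,000/well, triplicate) from HCMV-seropositive donors were stimulated for 20 h at 37 °C with 15-mer peptide pools (2 ug/ml) or single peptides (10 ug/ml). IFN-γ spots were counted by Fluorospot. Positivity required ≥20 SFC/10^6 PBMC over DMSO background, stimulation index >2 and p<0.05.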

For 66 (DPSYVREHGVPIHAD) [compound 66], the “No. of subjects responding” value stood at 1 and the Magnitude of response stood at 123.
In the same order, the values of 58 (FLKKMLLCALKGRAS) [compound 58] are 1 and 930.
In the same order, the values of 234 (FIMRQLMMYPLVLPF) [compound 234] are 1 and 530.
In the case of 55 (RRRFKVCDVGRRHII) [compound 55], the “No. of subjects responding” value came out at 1 and the Magnitude of response was determined as 63.
In the same order, the values of “132 (AREFLLSHDAALFRA; ends and bridges not checked) [compound 132]” are 1 and 23.
In the same order, the values of 77 (LRGYINRALAQIAEA) [compound 77] are 3 and 30337.
For 3 (RVRTWFVQRTTLWRR) [compound 3], the “No. of subjects responding” value is 1 and the Magnitude of response was 60.
In the case of 15 (FVAESITEFLNIGLR) [compound 15], the “No. of subjects responding” value amounted to 1 and the Magnitude of response was 530.
In the case of 52 (IQTMELMIRTVPRIT) [compound 52], the “No. of subjects responding” value is 2 and the Magnitude of response worked out at 384.
In the same order, the values of 198 (LFYRAVALGTLSALV) [compound 198] are 3 and 2633.
Regarding 93 (QTIYFLGLTALLLRY) [compound 93], the “No. of subjects responding” value was found to be 1 and the Magnitude of response came to 583.
In the same order, the values of 188 (MLRLLFTLVLLALYG) [compound 188] are 3 and 4593.
With 169 (EERDKVLTHIDHIFM) [compound 169], the “No. of subjects responding” value was determined as 2 and the Magnitude of response is 107.
Turning to 74 (NADKFFIFPNYTIVS) [compound 74], the “No. of subjects responding” value was found to be 4 and the Magnitude of response is listed as 5120.
For the substance 191 (FYMNWTLRRSQTHYL) [compound 191], the “No. of subjects responding” value amounted to 6 and the Magnitude of response turned out to be 16883.
Regarding 160 (ISLVTPLTINATLRL) [compound 160], the “No. of subjects responding” value worked out at 1 and the Magnitude of response amounted to 317.
221 (DFRDLLNFIRQRLCC) [compound 221]: the “No. of subjects responding” value worked out at 1 and the Magnitude of response is on record as 30.
Turning to 193 (FCVYRYNARLTRGYV) [compound 193], the “No. of subjects responding” value was determined as 3 and the Magnitude of response came to 700.
Consider 85 (RVGITIQQLNVYHQL) [compound 85], for which the “No. of subjects responding” value was 1 and the Magnitude of response is listed as 963.
For 229 (TNIMLQVSNVTNHTL) [compound 229], the “No. of subjects responding” value is recorded as 1 and the Magnitude of response came out at 58.
164 (LQTMLRKEVNSQLSL) [compound 164]: the “No. of subjects responding” value was determined as 2 and the Magnitude of response worked out at 1606.
With 206 (IRRWWISVAIVIFIG) [compound 206], the “No. of subjects responding” value is 3 and the Magnitude of response is on record as 10480.
In the same order, the values of 172 (FAQYILGADPLRVCS) [compound 172] are 1 and 30.
In the case of “37 (RDVVALVNFLRHLTQ; ends and bridges not checked) [compound 37]”, the “No. of subjects responding” value was 1 and the Magnitude of response was 1710.
For 223 (TDCWPFEVAPAARLA) [compound 223], the “No. of subjects responding” value is given as 2 and the Magnitude of response is on record as 1637.
With 199 (SSIFTSTHRGVIVAP) [compound 199], the “No. of subjects responding” value worked out at 1 and the Magnitude of response was found to be 27.
In the case of “34 (LRIIRLLRASIRHEY; ends and bridges not checked) [compound 34]”, the “No. of subjects responding” value was 1 and the Magnitude of response is listed as 810.
For the substance 70 (YQKVLTFRRSYAYIH) [compound 70], the “No. of subjects responding” value turned out to be 1 and the Magnitude of response was 40.
Regarding 204 (FPSARDIPKQLPEQP) [compound 204], the “No. of subjects responding” value is listed as 1 and the Magnitude of response is given as 27.
In the case of 64 (MLFFQRYAPAFVTGY) [compound 64], the “No. of subjects responding” value was 1 and the Magnitude of response is listed as 57.
Consider 179 (VMVRIFSTNQGGFML) [compound 179], for which the “No. of subjects responding” value was found to be 2 and the Magnitude of response stood at 3560.
Turning to 26 (VLATLAAVRTRRRSV) [compound 26], the “No. of subjects responding” value is recorded as 2 and the Magnitude of response is listed as 340.
Regarding 218 (GLYLRQYDPPALRTY) [compound 218], the “No. of subjects responding” value is 2 and the Magnitude of response stood at 633.
As to 60 (KFIFELYRLPRLSIA) [compound 60], the “No. of subjects responding” value came to 1 and the Magnitude of response was 173.
For 75 (GLVVFWQGIKQKSLV) [compound 75], the “No. of subjects responding” value is 1 and the Magnitude of response turned out to be 53.
On to 98 (IKMWFLLGAPMIAVL) [compound 98], for which the “No. of subjects responding” value is recorded as 3 and the Magnitude of response turned out to be 2867.
For the substance 1 (NGIRWQYQELQYLVE) [compound 1], the “No. of subjects responding” value is listed as 2 and the Magnitude of response was determined as 222.
Consider 224 (LFRAGLMKVYVRRRY) [compound 224], for which the “No. of subjects responding” value was 1 and the Magnitude of response is recorded as 870.
